According to patent US9901618B2, “Cell-permeable peptide system for treating diseases caused by glutamate excitotoxicity” (priority 2014, dated 2018):
Entries after “also recorded” stand apart in the source; their conditions may differ.

Legend:
[1] = test system: presynaptic NMDA receptors; assay: Paired-pulse ratio of evoked EPSCs, patch-clamp in entorhinal cortex slices; assay type: cell-based, mouse; conditions: D-AP5 50 μM perfusion, C57BL6/J slices
Procedure: The presynaptic NMDA receptors on the glutamatergic terminals are activated by the spontaneously-released glutamate and, by means of a positive feedback mechanism, determine a tonic liberation of glutamate. Electrophysiological recordings were made in order to investigate the functional role of JNK in the release of glutamate. For this reason, a parameter termed paired-pulse facilitation (PPF) was measured from pyramidal neurons of cerebral slices of entorhinal cortex (EC)-obtained from adult mice C57BL6/J incubated with or without the inhibitor of JNK, L-JNKi1 (2 μM for 30 min). Such paired-pulse facilitation (PPF) is a paradigm studied by means of the electrophysiological recording technique in patch-clamp configuration.

[2] = test system: presynaptic NMDA receptors; assay: mEPSC patch-clamp recording in cortex slices (NMDA-dependent presynaptic glutamate release); assay type: cell-based, mouse; conditions: for effect on D-AP5 block of NMDA presynaptic receptor (mEPSC inter-events): peptide added separately at 10 μM, 30 min before recording
Syntaxin 1a = assay: Western blot of STX1a (S14) phosphorylation in synaptosomes; assay type: cell-based, mouse
JNK = assay: Western blot of JNK phosphorylation in cortical synaptosomes; conditions: for phosphorylation of JNK (p-JNK/JNK) vs. control=100%: wild-type synaptosomes, stimulus alone (100 μM NMDA 10 min Mg2+-free; AMPA 10 min; KCl 90 s)
[3] = test system: presynaptic release of glutamate; assay: Glutamate ([3H]D-Asp) release from superfused cortical synaptosomes; assay type: cell-based, mouse; conditions: for exocytotic release of [3H] D-Asp vs. control: C57/BL6 cortical synaptosomes, 8 mM KCl 90 s, 100 μM NMDA 10 min Mg2+-free, 50 μM (S)-AMPA 10 min
[4] = synaptosomes treated with D-AP5

Compound: NC(CCCP(=O)(O)O)C(=O)O [D-AP5]
- paired-pulse ratio (PPR) at 50 ms interval [1]: irreversibly reduced
- mEPSC amplitude [2]: neither the cumulative amplitude nor the mean of the same events were affected; also recorded: never affected
- mEPSC inter-event intervals [2]: increase of the cumulative distribution of the inter-event intervals
- mEPSC inter-event intervals and amplitude [2]: no significant changes
- mEPSC inter-event intervals (IEI) ([2]; D-AP5, C57BL6/J slices, tetrodotoxin, picrotoxin, MK-801 in pipette): reversible increase
- change in pSTX1a vs. Ctrl (100%) with D-AP5 (Syntaxin 1a; [4]): −10±7.2%
- change in pJNK vs. Ctrl (100%) with D-AP5 (JNK; [4]): +10±8.9%

Compound: [Cl-].[K+] [KCl]
- exocytotic release of [3H] D-Asp vs. control [3]: 158±37%
- phosphorylation of JNK (p-JNK/JNK) vs. control=100% (JNK): unable to increase the phosphorylation of JNK

Compound: GRKKRRQRRRPPMSEYNATQSDYRER (SEQ ID NO: 8) (Muridae) [JGRi2]
- effect on D-AP5 block of NMDA presynaptic receptor (mEPSC inter-events) [2]: reduced the functionality of the inhibitor D-AP5

Compound: Cc1onc(O)c1C[C@H](N)C(=O)O [(S)-AMPA]
- exocytotic release of [3H] D-Asp vs. control [3]: 98±11%
- phosphorylation of JNK (p-JNK/JNK) vs. control=100% (JNK): unable to increase the phosphorylation of JNK

Compound: CN[C@H](CC(=O)O)C(=O)O [NMDA, N-Methyl D-Aspartate]
- exocytotic release of [3H] D-Asp vs. control [3]: 202±21%
- NMDA-induced release of [3H] D-Asp with respect to the overflow basal ([3]; JNK2-KO mouse synaptosomes, NMDA 10 min): 28±19%
- phosphorylation of STX1a (S14) after NMDA alone (Syntaxin 1a; NMDA 10 min): slight but non-significant decrease
- NMDA-induced phosphorylation of JNK (JNK; JNK2-KO mouse synaptosomes): totally eliminated
- NMDA-induced increase of pJNK vs. control=100% (JNK; JNK3-KO mouse synaptosomes): +76±10%

Compound: GRKKRRQRRRPPIEQSIEQEEGLNRS (SEQ ID NO: 5) (Muridae) [JGRi1]
- effect on D-AP5 block of NMDA presynaptic receptor (mEPSC inter-events) [2]: reduced the functionality of the inhibitor D-AP5
